# Data from PMC3644566 (Journal of chemical information and modeling, 2013).
# Assays:
# [1] = tested on: P. falciparum 3D7 or K1 strains; assay: P. falciparum growth inhibition assays of VS hits; assay type: cell-based, Plasmodium falciparum; conditions: against either 3D7 or K1 strains, most potent VS hit
# P. falciparum 3D7 strain = assay: P. falciparum growth inhibition assay; assay type: cell-based; conditions: Plasmodium falciparum, 3D7, 72 h, read-out: consensus EC50
SMILES,EC50 [1] [nM],EC50 (P. falciparum 3D7 strain) [nM]
C=CC1CN2CCC1CC2C(OC(=O)C1CC1)c1ccnc2ccccc12 (stereo not drawn) [SJ000565000],95.6,–
OC(c1cc(C(F)(F)F)nc2c(C(F)(F)F)cccc12)C1CCCCN1 (stereo not drawn) [mefloquine],–,39.8
CCN(CC)CCCC(C)Nc1ccnc2cc(Cl)ccc12 (stereo not drawn) [chloroquine],–,26.8
